Experimental data as given in patent US6500853B1, “Inhibitors of phospholipase enzymes” (Genetics Institute, LLC, priority 1998, dated 2002).
Where “and” joins values, the source holds several entries; their conditions need not be identical. Identical values can stand only once. Blank lines part the entries; values can stand above or below the compound they belong to.

How the values were obtained:
cPLA2 = molecular target: T1, cPLA2 (Homo sapiens, UniProt P47712); assay: Coumarin Assay (cPLA2 inhibition); type: biochemical
T1 sequence (P47712 1-749): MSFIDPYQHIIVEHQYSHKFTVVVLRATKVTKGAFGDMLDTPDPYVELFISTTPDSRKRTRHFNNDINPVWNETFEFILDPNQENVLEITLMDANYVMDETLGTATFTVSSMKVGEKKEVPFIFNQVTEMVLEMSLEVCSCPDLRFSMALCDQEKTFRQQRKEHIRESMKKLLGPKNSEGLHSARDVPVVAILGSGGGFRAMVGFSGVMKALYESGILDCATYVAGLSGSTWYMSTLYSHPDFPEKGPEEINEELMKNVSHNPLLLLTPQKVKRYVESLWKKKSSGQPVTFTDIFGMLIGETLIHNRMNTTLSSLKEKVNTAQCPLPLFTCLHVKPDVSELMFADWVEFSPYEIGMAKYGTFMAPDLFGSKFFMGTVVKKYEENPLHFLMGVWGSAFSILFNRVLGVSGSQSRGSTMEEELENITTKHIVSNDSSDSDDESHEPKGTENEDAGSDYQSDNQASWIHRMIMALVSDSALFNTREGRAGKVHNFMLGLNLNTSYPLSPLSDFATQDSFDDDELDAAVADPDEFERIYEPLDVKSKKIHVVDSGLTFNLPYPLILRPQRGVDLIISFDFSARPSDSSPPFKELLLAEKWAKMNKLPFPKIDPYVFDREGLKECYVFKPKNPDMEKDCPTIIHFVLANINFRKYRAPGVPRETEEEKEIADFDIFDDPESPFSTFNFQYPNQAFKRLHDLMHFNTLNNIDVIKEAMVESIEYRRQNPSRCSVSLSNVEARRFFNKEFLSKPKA
Method in brief: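 Percent inhibition at the stated concentration, from the rate of 460 nm emission rise (360 nm excitation) per minute. Reaction started by adding 4 μg enzyme to compound and 60 μM 7-hydroxycoumarinyl 6-heptenoate in Hepes buffer pH 7.5 with 1 mM EDTA.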

[1] = test system: Rat Carrageenan-Induced Footpad Edema; assay: Rat Carrageenan-Induced Footpad Edema Test; type: in vivo, male Sprague Dawley rats; conditions: footpad volume 3 hours after carrageenan; for inhibition in vivo at 2 mg/kg / inhibition in vivo at 10 mg/kg / inhibition in vivo at 5 mg/kg: Rattus norvegicus, 3 h, read-out: PERCENT INHIBITION; for inhibition in vivo at 2 mg/kg / inhibition in vivo at 10 mg/kg: po; for inhibition in vivo at 5 mg/kg: iv

SMILES: COc1cc(C(=O)O)ccc1Cc1cn(C(c2ccccc2)c2ccccc2)c2cc3c(cc12)OCO3 [Example 16, 4-[(5-benzhydryl-5H-[1,3]dioxolo[4,5-f]indol-7-yl)methyl]-3-methoxybenzoic acid]
PERCENT INHIBITION @ (cPLA2; CONCENTRATION 0.125 micromolar): 61% and 71% | inhibition at 0.14 µM (cPLA2; CONCENTRATION 0.14 micromolar, read-out: PERCENT INHIBITION @): 50% | inhibition at 0.17 µM (cPLA2; CONCENTRATION 0.17 micromolar, read-out: PERCENT INHIBITION @): 50% | inhibition at 0.25 µM (cPLA2; CONCENTRATION 0.25 micromolar, read-out: PERCENT INHIBITION @): 69% | inhibition at 6.25 µM (cPLA2; CONCENTRATION 6.25 micromolar, read-out: PERCENT INHIBITION @): 98% | inhibition in vivo at 2 mg/kg ([1]; PO, 2 mg/Kg): 3.8% | inhibition in vivo at 10 mg/kg ([1]; PO, 10 mg/Kg): 15%

SMILES: COc1cc(C(=O)O)ccc1Cc1cn(C(c2ccccc2)c2ccccc2)c2ccc(C#N)cc12 [Example 17, 4-[(1-benzhydryl-5-cyano-1H-indol-3-yl)methyl]-3-methoxybenzoic acid]
inhibition at 0.7 µM (cPLA2; CONCENTRATION 0.7 micromolar, read-out: PERCENT INHIBITION @): 50% | inhibition at 0.8 µM (cPLA2; CONCENTRATION 0.8 micromolar, read-out: PERCENT INHIBITION @): 50% | inhibition at 0.85 µM (cPLA2; CONCENTRATION 0.85 micromolar, read-out: PERCENT INHIBITION @): 50% | inhibition at 0.98 µM (cPLA2; CONCENTRATION 0.98 micromolar, read-out: PERCENT INHIBITION @): 50% | inhibition in vivo at 2 mg/kg ([1]; PO, 2 mg/Kg): 19.3% | inhibition in vivo at 10 mg/kg ([1]; PO, 10 mg/Kg): 34.5%

SMILES: COc1cc(C(=O)NS(=O)(=O)C(F)(F)F)ccc1Cc1cn(C(c2ccccc2)c2ccccc2)c2ccc(NC(=O)OC3CCCC3)cc12 [Example 26, Cyclopentyl N-{1-benzhydryl-3-[2-methoxy-4-({[(trifluoromethyl)sulfonyl]amino}carbonyl)benzyl]-1H-indol-5-yl}carbamate]
inhibition at 2.4 µM (cPLA2; CONCENTRATION 2.4 micromolar, read-out: PERCENT INHIBITION @): 50% | inhibition at 2.5 µM (cPLA2; CONCENTRATION 2.5 micromolar, read-out: PERCENT INHIBITION @): 50% | inhibition in vivo at 5 mg/kg ([1]; IV, 5 mg/Kg): 25.3%

SMILES: COc1cc(C(=O)NS(C)(=O)=O)ccc1Cc1cn(C(c2ccccc2)c2ccccc2)c2ccc(NC(=O)OC3CCCC3)cc12 [Example 27, cyclopentyl N-[1-benzhydryl-3-(2-methoxy-4-{[(methylsulfonyl)amino]carbonyl}benzyl)-1H-indol-5-yl]carbamate]
inhibition at 6 µM (cPLA2; CONCENTRATION 6 micromolar, read-out: PERCENT INHIBITION @): 50% | inhibition at 6.4 µM (cPLA2; CONCENTRATION 6.4 micromolar, read-out: PERCENT INHIBITION @): 50% | inhibition in vivo at 5 mg/kg ([1]; IV, 5 mg/Kg): 6.48%

The next lines start with results.

PERCENT INHIBITION @ (cPLA2; CONCENTRATION 100 micromolar): 50% | inhibition at 100 µM (cPLA2; CONCENTRATION 100 micromolar, read-out: PERCENT INHIBITION @): 42%
SMILES: COc1cc(C(=O)NS(=O)(=O)c2ccccc2C)ccc1Cc1cn(C(C)C)c2ccc(NC(=O)OC3CCCC3)cc12 [Example 24, Cyclopentyl N-{1-isopropyl-3-[2-methoxy-4-({[(2-methylphenyl)sulfonyl]amino}carbonyl)benzyl]-1H-indol-5-yl}carbamate]
inhibition in vivo at 5 mg/kg ([1]; IV, 5 mg/Kg): 8.33%

inhibition at 4.2 µM (cPLA2; CONCENTRATION 4.2 micromolar, read-out: PERCENT INHIBITION @): 50% | inhibition at 4.4 µM (cPLA2; CONCENTRATION 4.4 micromolar, read-out: PERCENT INHIBITION @): 50%
SMILES: COc1cc(C(=O)NS(=O)(=O)c2ccccc2Cl)ccc1Cc1cn(C(c2ccccc2)c2ccccc2)c2ccc(NC(=O)OC3CCCC3)cc12 [Example 28, cyclopentyl N-{1-benzhydryl-3-[4-({[(2-chlorophenyl)sulfonyl]amino}carbonyl)-2-methoxybenzyl]-1H-indol-5-yl}carbamate]
inhibition in vivo at 5 mg/kg ([1]; IV, 5 mg/Kg): 0.29%

PERCENT INHIBITION @ (cPLA2; CONCENTRATION 8 micromolar): 50% | PERCENT INHIBITION @ (cPLA2; CONCENTRATION 20 micromolar): 46% | PERCENT INHIBITION @ (cPLA2; CONCENTRATION 21 micromolar): 50% | PERCENT INHIBITION @ (cPLA2; CONCENTRATION 24 micromolar): 50%
SMILES: COc1cc(C(=O)NS(=O)(=O)c2cccc3c(N(C)C)cccc23)ccc1Cc1cn(C(c2ccccc2)c2ccccc2)c2ccc(NC(=O)OC3CCCC3)cc12 [Example 30]
PERCENT INHIBITION ([1]; IV, 5 mg/Kg): 13.89% | PERCENT INHIBITION ([1]; PO, 2 mg/Kg): −0.11% | PERCENT INHIBITION ([1]; PO, 10 mg/Kg): 13.25%
